{"source": "patent US20220388964A1", "about": "(HiberCell, Inc., priority 2019, published 2022)", "data": [{"target": "GCN2 (Homo sapiens, UniProt Q9P2K8)", "sequence (Q9P2K8 whole entry)": "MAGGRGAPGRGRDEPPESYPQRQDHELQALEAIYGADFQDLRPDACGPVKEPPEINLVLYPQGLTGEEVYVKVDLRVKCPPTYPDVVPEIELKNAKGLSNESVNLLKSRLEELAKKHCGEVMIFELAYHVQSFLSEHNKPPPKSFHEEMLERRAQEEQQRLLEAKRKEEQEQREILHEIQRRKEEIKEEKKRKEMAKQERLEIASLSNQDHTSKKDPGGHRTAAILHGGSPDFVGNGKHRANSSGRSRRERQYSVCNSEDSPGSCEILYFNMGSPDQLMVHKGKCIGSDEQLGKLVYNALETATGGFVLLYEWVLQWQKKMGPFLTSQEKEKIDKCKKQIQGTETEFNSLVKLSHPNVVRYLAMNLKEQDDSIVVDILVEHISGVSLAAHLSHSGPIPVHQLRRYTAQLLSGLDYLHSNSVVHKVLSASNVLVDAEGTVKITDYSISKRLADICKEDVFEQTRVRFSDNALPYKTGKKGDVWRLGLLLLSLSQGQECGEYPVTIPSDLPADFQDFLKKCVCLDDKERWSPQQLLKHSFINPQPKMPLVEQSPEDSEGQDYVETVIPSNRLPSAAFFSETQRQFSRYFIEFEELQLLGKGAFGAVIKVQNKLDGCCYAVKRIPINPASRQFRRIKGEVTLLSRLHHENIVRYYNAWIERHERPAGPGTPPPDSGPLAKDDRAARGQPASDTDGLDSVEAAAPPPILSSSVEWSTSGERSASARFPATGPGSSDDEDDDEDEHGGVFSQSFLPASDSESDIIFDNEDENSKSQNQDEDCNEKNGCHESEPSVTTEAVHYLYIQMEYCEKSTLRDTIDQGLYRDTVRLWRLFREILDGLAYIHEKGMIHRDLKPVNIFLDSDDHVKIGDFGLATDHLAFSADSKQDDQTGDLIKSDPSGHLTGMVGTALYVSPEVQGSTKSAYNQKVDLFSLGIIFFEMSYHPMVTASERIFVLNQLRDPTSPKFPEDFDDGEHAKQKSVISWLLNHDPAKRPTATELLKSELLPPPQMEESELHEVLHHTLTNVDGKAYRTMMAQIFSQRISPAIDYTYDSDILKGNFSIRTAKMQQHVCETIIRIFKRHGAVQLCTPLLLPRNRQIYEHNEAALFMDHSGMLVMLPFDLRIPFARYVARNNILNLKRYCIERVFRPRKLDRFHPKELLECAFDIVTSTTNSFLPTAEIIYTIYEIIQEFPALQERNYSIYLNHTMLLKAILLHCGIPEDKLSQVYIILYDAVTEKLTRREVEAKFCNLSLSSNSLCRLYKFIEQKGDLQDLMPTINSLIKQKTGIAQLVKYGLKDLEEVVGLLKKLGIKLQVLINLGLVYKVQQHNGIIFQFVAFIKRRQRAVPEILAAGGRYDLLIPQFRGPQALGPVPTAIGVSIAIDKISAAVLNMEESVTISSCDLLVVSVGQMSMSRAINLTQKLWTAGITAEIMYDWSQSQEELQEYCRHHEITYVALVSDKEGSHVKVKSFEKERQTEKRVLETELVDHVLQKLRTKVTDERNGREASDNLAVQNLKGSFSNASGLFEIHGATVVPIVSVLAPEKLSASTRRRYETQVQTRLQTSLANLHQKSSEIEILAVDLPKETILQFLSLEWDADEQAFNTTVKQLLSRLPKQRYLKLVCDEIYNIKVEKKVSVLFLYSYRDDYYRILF", "assay": "TR-FRET biochemical assay for inhibition of GCN2 (Example 106, for Example 1-4BB)", "conditions": "Table 8", "units": {"IC50": "nM"}, "values": [{"smiles": "Cc1ccc(F)cc1S(=O)(=O)Nc1ccc(F)c(-c2ccc3c(-c4ncc[nH]4)n[nH]c3c2F)c1F", "note": "[Example 2BJ, N-(2,4-difluoro-3-(7-fluoro-3-(1H-imidazol-2-yl)-1H-indazol-6-yl)phenyl)-5-fluoro-2-methylbenzenesulfonamide]", "IC50": "< 500"}, {"smiles": "COc1ncc(Cl)cc1S(=O)(=O)Nc1ccc(F)c(-c2ccc3c(C(=O)NCCN(C)C)n[nH]c3c2F)c1F", "note": "[Example 2CF, 6-(3-((5-chloro-2-methoxy-pyridine)-3-sulfonamido)-2,6-difluorophenyl)-N-(2-(di-methylamino)ethyl)-7-fluoro-1H-indazole-3-carboxamide]", "IC50": "< 500"}, {"smiles": "Cc1noc(C)c1S(=O)(=O)Nc1ccc(F)c(-c2ccc3c(-c4ncc[nH]4)n[nH]c3c2F)c1F", "note": "[Example 2AZ, N-(2,4-difluoro-3-(7-fluoro-3-(1H-imidazol-2-yl)-1H-indazol-6-yl)phenyl)-3,5-dimethylisoxazole-4-sulfonamide]", "IC50": "< 500"}, {"smiles": "COc1ncc(Cl)cc1S(=O)(=O)Nc1ccc(F)c(-c2ccc3c(C(=O)NCCCO)n[nH]c3c2F)c1F", "note": "[Example 2CI, 6-(3-((5-chloro-2-methoxy-pyridine)-3-sulfonamido)-2,6-difluorophenyl)-7-fluoro-N-(3-hydroxypropyl)-1H-indazole-3-carboxamide]", "IC50": "< 500"}, {"smiles": "Cc1c(O)cccc1S(=O)(=O)Nc1ccc(F)c(-c2ccc3c(-c4ncc[nH]4)n[nH]c3c2F)c1F", "note": "[Example 2AU, N-(2,4-difluoro-3-(7-fluoro-3-(1H-imidazol-2-yl)-1H-indazol-6-yl)phenyl)-3-hydroxy-2-methylbenzene-sulfonamide]", "IC50": "500 to 2500"}, {"smiles": "Cn1ccnc1S(=O)(=O)Nc1ccc(F)c(-c2ccc3c(-c4ncc[nH]4)n[nH]c3c2F)c1F", "note": "[Example 2S, N-(2,4-difluoro-3-(7-fluoro-3-(1H-imidazol-2-yl)-1H-indazol-6-yl)phenyl)-1-methyl-1H-imidazole-2-sulfonamide]", "IC50": "2500 to 10000"}, {"smiles": "COc1ncc(Cl)cc1S(=O)(=O)Nc1cccc(-c2ccc3c(-c4ncc[nH]4)n[nH]c3c2F)c1C", "note": "[Example 2P, 5-chloro-N-(3-(7-fluoro-3-(1H-imidazol-2-yl)-1H-indazol-6-yl)-2-methylphenyl)-2-methoxypyridine-3-sulfonamide]", "IC50": "< 500"}, {"smiles": "Cc1cccc(F)c1S(=O)(=O)Nc1ccc(F)c(-c2ccc3c(-c4ncc[nH]4)n[nH]c3c2F)c1F", "note": "[Example 2AT, N-(2,4-difluoro-3-(7-fluoro-3-(1H-imidazol-2-yl)-1H-indazol-6-yl)phenyl)-2-fluoro-6-methylbenzene-sulfonamide]", "IC50": "< 500"}]}, {"target": "GCN2 (Homo sapiens, UniProt Q9P2K8)", "assay": "TR-FRET biochemical assay for inhibition of GCN2 (Example 106, for Example 1-4BB)", "conditions": "Table 9", "units": {"IC50": "nM"}, "values": [{"smiles": "COc1ncc(F)cc1S(=O)(=O)Nc1cc(C#N)cc(-c2ccc3c(-c4ncc[nH]4)n[nH]c3c2F)c1F", "note": "[Example 3CB, N-(5-cyano-2-fluoro-3-(7-fluoro-3-(1H-imidazol-2-yl)-1H-indazol-6-yl)phenyl)-5-fluoro-2-methoxypyridine-3-sulfonamide]", "IC50": "> 10000"}, {"smiles": "COc1ncc(Cl)cc1S(=O)(=O)Nc1ccc(F)c(-c2ccc3c(C(=O)Nc4cnn(C(F)F)c4)n[nH]c3c2F)c1F", "note": "[Example 3CR, 6-(3-((5-chloro-2-methoxy-pyridine)-3-sulfonamido)-2,6-difluorophenyl)-N-(1-(difluoromethyl)-1H pyrazol-4-yl)-7-fluoro-1H-indazole-3-carboxamide]", "IC50": "500 to 2500"}, {"smiles": "Cc1ncc(F)cc1S(=O)(=O)Nc1cc(F)cc(-c2ccc3c(C(N)=O)n[nH]c3c2F)c1F", "note": "[Example 3CG, 6-(2,5-difluoro-3-((5-fluoro-2-methylpyridine)-3-sulfon-amido)phenyl)-7-fluoro-1H-indazole-3-carboxamide]", "IC50": "< 500"}, {"smiles": "COc1ncc(Cl)cc1S(=O)(=O)Nc1ccc(F)c(-c2ccc3c(C(=O)NC[C@@H]4CCCN4C)n[nH]c3c2F)c1F", "note": "[Example 3E, 6-(3-((5-chloro-2-methoxy-pyridine)-3-sulfonamido)-2,6-difluorophenyl)-7-fluoro-N-(((S)-1-methylpyrrolidin-2-yl)methyl)-1H-indazole-3-carboxamide]", "IC50": "< 500"}, {"smiles": "COc1ncc(Cl)cc1S(=O)(=O)Nc1ccc(F)c(-c2ccc3c(C(=O)Nc4c[nH]nc4C)n[nH]c3c2F)c1F", "note": "[Example 3CS, 6-(3-((5-chloro-2-methoxy-pyridine)-3-sulfonamido)-2,6-difluorophenyl)-7-fluoro-N-(3-methyl-1H-pyrazol-4-yl)-1H-indazole-3-carboxamide]", "IC50": "< 500"}, {"smiles": "COc1ncc(F)cc1S(=O)(=O)Nc1cccc(-c2ccc3c(-c4ncc[nH]4)n[nH]c3c2Cl)c1F", "note": "[Example 18, N-(3-(7-Chloro-3-(1H-imidazol-2-yl)-1H-indazol-6-yl)-2-fluorophenyl)-5-fluoro-2-methoxypyridine-3-sulfonamide]", "IC50": "500 to 2500"}, {"smiles": "COc1ncc(F)cc1S(=O)(=O)Nc1ccc(F)c(-c2ccc3c(C(=O)NCCCN(C)C)n[nH]c3c2F)c1F", "note": "[Example 3U, 6-(2,6-difluoro-3-((5-fluoro-2-methoxypyridine)-3-sulfonamido)phenyl)-N-(3-(dimethylamino)propyl)-7-fluoro-1H-indazole-3-carboxamide]", "IC50": "< 500"}, {"smiles": "Cc1c(CO)cc(F)cc1S(=O)(=O)Nc1ccc(F)c(-c2ccc3c(-c4ncc[nH]4)n[nH]c3c2F)c1F", "note": "[Example 32, N-(2,4-Difluoro-3-(7-fluoro-3-(1H-imidazol-2-yl)-1H-indazol-6-yl)phenyl)-5-fluoro-3-(hydroxymethyl)-2-methylbenzenesulfonamide]", "IC50": "< 500"}, {"smiles": "COc1ncc(F)cc1S(=O)(=O)Nc1ccc(F)c(-c2ccc3c(C(=O)Nc4ccc(C)nc4)n[nH]c3c2F)c1F", "note": "[Example 3BX, 6-(2,6-difluoro-3-((5-fluoro-2-methoxypyridine)-3-sulfonamido)phenyl)-7-fluoro-N-(6-methylpyridin-3-yl)-1H-indazole-3-carboxamide]", "IC50": "< 500"}, {"smiles": "Cc1ncc(F)cc1S(=O)(=O)Nc1ccc(F)c(-c2ccc3c(C(=O)NCCCN(C)C)n[nH]c3c2F)c1F", "note": "[Example 3CI, 6-(2,6-difluoro-3-((5-fluoro-2-methylpyridine)-3-sulfonamido)phenyl)-N-(3-(dimethylamino)propyl)-7-fluoro-1H-indazole-3-carboxamide]", "IC50": "500 to 2500"}, {"smiles": "Cc1ccc(S(=O)(=O)Nc2ccc(F)c(-c3ccc4c(C(=O)Nc5cnoc5)n[nH]c4c3F)c2F)c(C)n1", "note": "[Example 3DG, 6-(3-((2,6-dimethylpyridine)-3-sulfonamido)-2,6-difluoro-phenyl)-7-fluoro-N-(isoxazol-4-yl)-1H-indazole-3-carboxamide]", "IC50": "< 500"}, {"smiles": "Cc1ncc(S(=O)(=O)Nc2cc(F)cc(-c3ccc4c(-c5ncc[nH]5)n[nH]c4c3F)c2F)s1", "note": "[Example 3CJ, N-(2,5-difluoro-3-(7-fluoro-3-(1H-imidazol-2-yl)-1H-indazol-6-yl)phenyl)-2-methylthiazole-5-sulfonamide]", "IC50": "500 to 2500"}, {"smiles": "COc1ncc(Cl)cc1S(=O)(=O)Nc1cccc(-c2cc3[nH]nc(C(=O)NCCCN(C)C)c3cn2)c1F", "note": "[Example 35, 6-[3-[(5-chloro-2-methoxy-3-pyridyl)sulfonylamino]-2-fluoro-phenyl]-N-[3-(dimethylamino)propyl]-1H-pyrazolo[4,3-c]pyridine-3-carboxamide]", "IC50": "< 500"}, {"smiles": "Cc1ccc(F)cc1S(=O)(=O)Nc1ccc(F)c(-c2cc3[nH]ncc3cn2)c1F", "note": "[Example 4BB]", "IC50": "500 to 2500"}]}]}
